Experiments:
Conditions in all cases: incubation time: 72 h
MDA-MB-468 [1] = test: normalised viability (% of control), CellTiter-Blue; higher = more viable cells (about 100 = DMSO control)
How it was run: (§1)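 Plates were quality-checked by Z'-factor and normalised to vehicle (100) and a positive kill control (0). The underlying assay incubated breast cancer cell lines for 72 h on 384-well plates with compound, then added 2.5 µl CellTiter-Blue for 2 h at 37 °C and read at 560/590 nm. The value is normalised viability at a single listed concentration of the series.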

HDQ-P1 [2] = test: as above
How it was run: as §1

SK-BR-3 = test: as above
How it was run: as §1

CAL-51 [3] = test: as above
How it was run: as §1

MDA-MB-231 [4] = test: as above
How it was run: as §1

CAL-120 = test: as above
How it was run: as §1

Hs578T = test: as above
How it was run: as §1

CAL-148 [5] = test: as above
How it was run: as §1

CAL-85-1 [6] = test: as above
How it was run: as §1

MDA-MB-453 [7] = test: as above
How it was run: as §1

MFM-223 [8] = test: as above
How it was run: as §1

HCC1143 = test: drug sensitivity score (DSS), CellTox Green (DSS (AUC-based score)); higher = stronger drug effect (viability inhibition or cytotoxicity); extreme values may be limits of the assay
How it was run: (§2)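 In 384-well plates, compound was laid out at 5 concentrations in 10-fold steps over a 10,000-fold range specific to each compound, and breast cancer cell lines were seeded on top in 20 µl suspension for a 72 h incubation. CellTox Green fluorescence and then CellTiter-Glo luminescence were read, and each plate was normalised to 0.1 % DMSO and a positive kill control. The drug sensitivity score was calculated from the area under the fitted dose-response curve.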

MDA-MB-468 [9] = test: as above
How it was run: as §2

MDA-MB-436 = test: as above
How it was run: as §2

HDQ-P1 [10] = test: as above
How it was run: as §2

CAL-51 [11] = test: as above
How it was run: as §2

MDA-MB-231 [12] = test: as above
How it was run: as §2

CAL-148 [13] = test: as above
How it was run: as §2

DU-4475 = test: as above
How it was run: as §2

CAL-85-1 [14] = test: as above
How it was run: as §2

MDA-MB-453 [15] = test: as above
How it was run: as §2

BT-549 = test: as above
How it was run: as §2

BT-474 = test: as above
How it was run: as §2

MFM-223 [16] = test: as above
How it was run: as §2

HCC1937 = test: as above
How it was run: as §2

Cn1cc(C2=Nc3cc(NC(=O)C(N)C4CCCCC4)cc4c3C2=CNNC4=O)cn1 (stereo not drawn)
normalised viability [%]
Conditions | 3 nM | 10 nM | 30 nM | 100 nM | 1000 nM | 10000 nM
CAL-51 [3] | 104 | – | 87.2 | 93 | – | –
CAL-85-1 [6] | 89 | – | 78.3 | 90 | – | –
CAL-120 | – | 96.5 | – | – | 57.2 | 27
CAL-148 [5] | 88.3 | – | 93.5 | 94 | – | –
HDQ-P1 [2] | 104 | – | 102 | 106 | – | –
Hs578T | – | 122 | – | – | 35.1 | 29.5
MDA-MB-231 [4] | – | 81.7 | – | – | 85.6 | 34.5
MDA-MB-453 [7] | 96.7 | – | 94.9 | 72.4 | – | –
MDA-MB-468 [1] | – | 112 | – | – | 19.4 | 10.4
MFM-223 [8] | – | 86.1 | – | – | 57.3 | 62.2
SK-BR-3 | – | 81.8 | – | – | 13.8 | 10.8

Conditions | drug sensitivity score
BT-474 | 0
BT-549 | 4.35
CAL-51 [11] | 11
CAL-85-1 [14] | 12
CAL-148 [13] | 0
DU-4475 | 0
HCC1143 | 0
HCC1937 | 0
HDQ-P1 [10] | 7.95
MDA-MB-231 [12] | 8.99
MDA-MB-436 | 0
MDA-MB-453 [15] | 3.06
MDA-MB-468 [9] | 3.14
MFM-223 [16] | 5.76

COc1cc2c(cc1O)CC[C@@H]1[C@@H]2CC[C@]2(C)[C@@H](O)CC[C@@H]12 [2-methoxyestradiol]
normalised viability [%]
Conditions | 3 nM | 10 nM | 30 nM | 100 nM | 1000 nM | 10000 nM
CAL-51 [3] | 122 | – | 114 | 106 | – | –
CAL-85-1 [6] | 91.4 | – | 85.5 | 94.5 | – | –
CAL-120 | – | 105 | – | – | 61.4 | 24.2
CAL-148 [5] | 89.8 | – | 89.5 | 86 | – | –
HDQ-P1 [2] | 103 | – | 93.9 | 93.2 | – | –
Hs578T | – | 114 | – | – | 67.5 | 16.2
MDA-MB-231 [4] | – | 83.9 | – | – | 44.8 | 30.5
MDA-MB-453 [7] | 114 | – | 87.5 | 96.7 | – | –
MDA-MB-468 [1] | – | 111 | – | – | 97.2 | 50.1
MFM-223 [8] | – | 98.8 | – | – | 74.9 | 99.2
SK-BR-3 | – | 97.6 | – | – | 101 | 20.2

Conditions | drug sensitivity score
BT-474 | 3.99
BT-549 | 0.838
CAL-51 [11] | 4.37
CAL-85-1 [14] | 0
CAL-148 [13] | 0
DU-4475 | 0
HCC1143 | 0
HCC1937 | 0
HDQ-P1 [10] | 0
MDA-MB-231 [12] | 13.2
MDA-MB-436 | 0
MDA-MB-453 [15] | 0
MDA-MB-468 [9] | 0
MFM-223 [16] | 6.65

Cc1sc2c(c1C)C(c1ccc(Cl)cc1)=N[C@@H](CC(=O)OC(C)(C)C)c1nnc(C)n1-2 [(+)JQ1]
normalised viability [%]
Conditions | 3 nM | 10 nM | 30 nM | 100 nM | 1000 nM | 10000 nM
CAL-51 [3] | 100 | – | 96.9 | 104 | – | –
CAL-85-1 [6] | 93.2 | – | 82.6 | 80 | – | –
CAL-120 | – | 83.2 | – | – | 47.7 | 49.2
CAL-148 [5] | 95.7 | – | 103 | 97.3 | – | –
HDQ-P1 [2] | 102 | – | 113 | 107 | – | –
Hs578T | – | 100 | – | – | 61.4 | 44.8
MDA-MB-231 [4] | – | 107 | – | – | 32.8 | 35.9
MDA-MB-453 [7] | 111 | – | 107 | 84.5 | – | –
MDA-MB-468 [1] | – | 107 | – | – | 71.8 | 52.2
MFM-223 [8] | – | 99.3 | – | – | 54 | 45.4
SK-BR-3 | – | 117 | – | – | 53.9 | 51.8

Conditions | drug sensitivity score
BT-474 | 0
BT-549 | 0
CAL-51 [11] | 6.31
CAL-85-1 [14] | 8.47
CAL-148 [13] | 6.55
DU-4475 | 1.14
HCC1143 | 0
HCC1937 | 13.4
HDQ-P1 [10] | 0
MDA-MB-231 [12] | 0
MDA-MB-436 | 0
MDA-MB-453 [15] | 0
MDA-MB-468 [9] | 8.47
MFM-223 [16] | 0

Nc1ncn([C@@H]2O[C@H](CO)[C@@H](O)[C@H]2O)c(=O)n1 [Azacitidine]
normalised viability [%]
Conditions | 3 nM | 10 nM | 30 nM | 100 nM | 1000 nM | 10000 nM
CAL-51 [3] | 102 | – | 104 | 104 | – | –
CAL-85-1 [6] | 98.5 | – | 97.8 | 92.6 | – | –
CAL-120 | – | 80.9 | – | – | 88.9 | 60.9
CAL-148 [5] | 83.8 | – | 85.2 | 89.3 | – | –
HDQ-P1 [2] | 141 | – | 104 | 96 | – | –
Hs578T | – | 98.4 | – | – | 90.2 | 36
MDA-MB-231 [4] | – | 81.1 | – | – | 85.4 | 69.9
MDA-MB-453 [7] | 104 | – | 109 | 102 | – | –
MDA-MB-468 [1] | – | 110 | – | – | 40.7 | 20.9
MFM-223 [8] | – | 100 | – | – | 95.5 | 59.4
SK-BR-3 | – | 92 | – | – | 106 | 66.6

Conditions | drug sensitivity score
BT-474 | 1.95
BT-549 | 0
CAL-51 [11] | 0
CAL-85-1 [14] | 0
CAL-148 [13] | 0
DU-4475 | 0
HCC1143 | 0
HCC1937 | 0
HDQ-P1 [10] | 0
MDA-MB-231 [12] | 0
MDA-MB-436 | 1.61
MDA-MB-453 [15] | 0
MDA-MB-468 [9] | 0.523
MFM-223 [16] | 0

Source: the supplement of paper PMC4862054
